Where “and” joins values, the source holds several entries; their conditions need not be identical. Equal values may be shown once. Toxic doses and inconclusive results are not listed. Peptide text beside a SMILES is read from it.
Test system: P388 leukemia ip, CD2F1 mice, survival T/C
Experiment: NCI In Vivo Anticancer Drug Screen. Data for tumor model P388 Leukemia (intraperitoneal) in CD2F1 (CDF1) mice
Settings: endpoint: median survival time, higher = longer survival
How it was run: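 Mice carrying the transplanted tumor received test compound or vehicle. Survival was recorded in each group, and the value is the treated-group measurement divided by that of the vehicle-treated control group.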

[1] = dose: 50.0 mg/kg/injection, schedule: Q01DX009 (ip), vehicle: Klucel (hydroxypropylcellulose) (HPC)
[2] = dose: 100.0 mg/kg/injection, schedule: Q01DX009 (ip), vehicle: Klucel (hydroxypropylcellulose) (HPC)
[3] = dose: 200.0 mg/kg/injection, schedule: Q01DX009 (ip), vehicle: Klucel (hydroxypropylcellulose) (HPC)
[4] = dose: 50.0 mg/kg/injection, schedule: Q01DX005 (ip), vehicle: Klucel (hydroxypropylcellulose) (HPC)
[5] = dose: 100.0 mg/kg/injection, schedule: Q01DX005 (ip), vehicle: Klucel (hydroxypropylcellulose) (HPC)
[6] = dose: 200.0 mg/kg/injection, schedule: Q01DX005 (ip), vehicle: Klucel (hydroxypropylcellulose) (HPC)
[7] = dose: 6.25 mg/kg/injection, schedule: Q01DX009 (ip), vehicle: Klucel (hydroxypropylcellulose) (HPC)
[8] = dose: 12.5 mg/kg/injection, schedule: Q01DX009 (ip), vehicle: Klucel (hydroxypropylcellulose) (HPC)

In the case of `Cc1cc2[nH]c(Cl)c(/C=N/NC(N)=S)c2cc1O`, the T/C (dose: 100.0 mg/kg/injection, schedule: Q01DX001 (ip), vehicle: Klucel (hydroxypropylcellulose) (HPC)) is reported as 99 % of control, the T/C (dose: 200.0 mg/kg/injection, schedule: Q01DX001 (ip), vehicle: Klucel (hydroxypropylcellulose) (HPC)) is reported as 99 % of control and the T/C (dose: 400.0 mg/kg/injection, schedule: Q01DX001 (ip), vehicle: Klucel (hydroxypropylcellulose) (HPC)) is reported as 97 % of control.

In the case of `CCCCC(=O)/C=C/c1ccc(Cl)c(Cl)c1`, the T/C [1] is reported as 98 % of control, the T/C [2] is reported as 90 % of control and the T/C [3] is reported as 95 % of control.

For `O=C(CCl)Nc1nc(=O)[nH]s1`, the T/C [1] was 107 % of control and the T/C [2] was 107 % of control.

In the case of `O=c1oc(-c2ccccc2Br)ns1`, the T/C [2] is reported as 107 % of control and the T/C [3] is reported as 97 % of control.

For `COc1c(-c2ccccc2)oc2c(ccc3occc32)c1=O`, the T/C (dose: 12.5 mg/kg/injection, schedule: Q01DX005 (ip), vehicle: Klucel (hydroxypropylcellulose) (HPC)) was 104 % of control, the T/C (dose: 25.0 mg/kg/injection, schedule: Q01DX005 (ip), vehicle: Klucel (hydroxypropylcellulose) (HPC)) was 99 % of control and the T/C [4] was 99 % of control. For the same molecule, the T/C [5] was 87 % of control and the T/C [6] was 88 % of control.

In the case of `FC(F)(F)c1ccc(-c2nn[nH]n2)cc1`, the T/C (dose: 60.0 mg/kg/injection, schedule: Q01DX005 (ip), vehicle: Klucel (hydroxypropylcellulose) (HPC)) is reported as 107 % of control and the T/C (dose: 120.0 mg/kg/injection, schedule: Q01DX005 (ip), vehicle: Klucel (hydroxypropylcellulose) (HPC)) is reported as 101 % of control.

`O=C(/C=C/c1ccc([N+](=O)[O-])cc1)Cc1ccccc1` was tested, and the T/C (dose: 100.0 mg/kg/injection, schedule: Q04DX002 (ip), vehicle: saline) was 97 % of control, the T/C (dose: 200.0 mg/kg/injection, schedule: Q04DX002 (ip), vehicle: saline) was 104 % of control and the T/C (dose: 400.0 mg/kg/injection, schedule: Q04DX002 (ip), vehicle: saline) was 100 % of control.

`O=c1n(-c2ccccc2)c(=O)n2n1C1C3C4C5C1C5C2C43` (centres undefined) was tested, and the T/C [7] was 100 % of control and the T/C [8] was 87 % of control.

In the case of `CCCCC([Se])=Nc1ccc(Br)cc1`, the T/C [7] is reported as 106 % of control, the T/C [8] is reported as 104 % of control and the T/C (dose: 25.0 mg/kg/injection, schedule: Q01DX009 (ip), vehicle: Klucel (hydroxypropylcellulose) (HPC)) is reported as 104 % of control.

In the case of `CCCCCCCNC1=C(N2CC2)C(=O)C(NCCCCCCC)=C(N2CC2)C1=O`, the T/C (dose: 1.25 mg/kg/injection, schedule: Q01DX009 (ip), vehicle: saline) is reported as 100 % of control, the T/C (dose: 2.5 mg/kg/injection, schedule: Q01DX009 (ip), vehicle: saline) is reported as 105 % of control and 107 % of control and the T/C (dose: 5.0 mg/kg/injection, schedule: Q01DX009 (ip), vehicle: saline) is reported as 105 % of control and 106 % of control. For the same molecule, the T/C (dose: 10.0 mg/kg/injection, schedule: Q01DX009 (ip), vehicle: saline) was 106 % of control and 94 % of control and the T/C (dose: 20.0 mg/kg/injection, schedule: Q01DX009 (ip), vehicle: saline) was 115 % of control and 90 % of control.

For `CNC(=O)OCC1=C(COC(=O)NC)C2OC1C(C(=O)OC)=C2c1ccc(Cl)cc1` (centres undefined), the T/C (dose: 1.56 mg/kg/injection, schedule: Q01DX009 (ip), vehicle: distilled water + Tween-80) was 100 % of control, the T/C (dose: 3.13 mg/kg/injection, schedule: Q01DX009 (ip), vehicle: distilled water + Tween-80) was 92 % of control and the T/C (dose: 6.25 mg/kg/injection, schedule: Q01DX009 (ip), vehicle: distilled water + Tween-80) was 108 % of control. For the same molecule, the T/C (dose: 12.5 mg/kg/injection, schedule: Q01DX009 (ip), vehicle: distilled water + Tween-80) was 90 % of control and 94 % of control, the T/C (dose: 25.0 mg/kg/injection, schedule: Q01DX009 (ip), vehicle: distilled water + Tween-80) was 88 % of control and the T/C (dose: 50.0 mg/kg/injection, schedule: Q01DX009 (ip), vehicle: distilled water + Tween-80) was 88 % of control. The T/C (dose: 100.0 mg/kg/injection, schedule: Q01DX009 (ip), vehicle: distilled water + Tween-80) was 88 % of control and the T/C (dose: 200.0 mg/kg/injection, schedule: Q01DX009 (ip), vehicle: distilled water + Tween-80) was 101 % of control.

With `O=C1OC(c2ccc(Cl)c(Cl)c2)C(=O)C1=O` (centres undefined) the T/C (dose: 3.75 mg/kg/injection, schedule: Q01DX005 (ip), vehicle: saline with Tween-80) was 86 % of control, the T/C (dose: 7.5 mg/kg/injection, schedule: Q01DX005 (ip), vehicle: saline with Tween-80) was 91 % of control and the T/C (dose: 15.0 mg/kg/injection, schedule: Q01DX005 (ip), vehicle: Klucel + Tween-80) was 92 % of control. For the same molecule, the T/C (dose: 15.0 mg/kg/injection, schedule: Q01DX005 (ip), vehicle: saline with Tween-80) was 102 % of control.

`COc1cccc(C(OC(=O)c2ccccc2)c2nncc3ccccc23)c1OC` (centres undefined) was tested, and the T/C [1] was 100 % of control, the T/C [2] was 103 % of control and the T/C [3] was 100 % of control.

In the case of `N=C(N)c1ccc(N=Nc2c(O)ccc3c2[nH]c2ccccc23)cc1`, the T/C (dose: 50.0 mg/kg/injection, schedule: Q01DX005 (ip), vehicle: saline with Tween-80) is reported as 101 % of control, the T/C (dose: 100.0 mg/kg/injection, schedule: Q01DX005 (ip), vehicle: saline with Tween-80) is reported as 98 % of control and the T/C (dose: 200.0 mg/kg/injection, schedule: Q01DX005 (ip), vehicle: saline with Tween-80) is reported as 106 % of control.

For `CCCCCCCCCCCC(=O)C(=O)c1ccc(O)c(C)c1O`, the T/C [1] was 107 % of control, the T/C [2] was 105 % of control and the T/C [3] was 110 % of control.

In the case of `Cc1cnc(NS(=O)(=O)c2ccc(N)cc2)nc1-c1ccccc1O`, the T/C (dose: 60.0 mg/kg/injection, schedule: Q01DX005 (ip), vehicle: saline with Tween-80) is reported as 100 % of control, the T/C (dose: 120.0 mg/kg/injection, schedule: Q01DX005 (ip), vehicle: saline with Tween-80) is reported as 93 % of control and the T/C (dose: 240.0 mg/kg/injection, schedule: Q01DX005 (ip), vehicle: saline with Tween-80) is reported as 86 % of control.

With `[Co].[N-]=C=S.[N-]=C=S.[N-]=C=S.[N-]=C=S` the T/C (dose: 9.5 mg/kg/injection, schedule: Q01DX009 (ip), vehicle: saline) was 101 % of control, the T/C (dose: 19.0 mg/kg/injection, schedule: Q01DX009 (ip), vehicle: saline) was 93 % of control and the T/C (dose: 38.0 mg/kg/injection, schedule: Q01DX009 (ip), vehicle: saline) was 104 % of control. The T/C (dose: 50.0 mg/kg/injection, schedule: Q01DX009 (ip), vehicle: saline) was 161 % of control.

In the case of `CC1CN(C(=O)Nc2ccc([N+](=O)[O-])cc2)CC(C)O1` (centres undefined), the T/C (dose: 50.0 mg/kg/injection, schedule: Q01DX009 (ip), vehicle: saline with Tween-80) is reported as 96 % of control, the T/C (dose: 100.0 mg/kg/injection, schedule: Q01DX009 (ip), vehicle: saline with Tween-80) is reported as 87 % of control and the T/C (dose: 200.0 mg/kg/injection, schedule: Q01DX009 (ip), vehicle: saline with Tween-80) is reported as 89 % of control.

`CCCC(N(C)C)P(=O)(O)O` (centres undefined) was tested, and the T/C (dose: 100.0 mg/kg/injection, schedule: Q04DX003 (ip), vehicle: saline) was 105 % of control, the T/C (dose: 200.0 mg/kg/injection, schedule: Q04DX003 (ip), vehicle: saline) was 105 % of control and the T/C (dose: 400.0 mg/kg/injection, schedule: Q04DX003 (ip), vehicle: saline) was 100 % of control.

For `COC(=N)c1nnn(-c2ccccc2)n1`, the T/C (dose: 100.0 mg/kg/injection, schedule: Q04DX003 (ip), vehicle: Klucel (hydroxypropylcellulose) (HPC)) was 97 % of control, the T/C (dose: 200.0 mg/kg/injection, schedule: Q04DX003 (ip), vehicle: Klucel (hydroxypropylcellulose) (HPC)) was 97 % of control and the T/C (dose: 400.0 mg/kg/injection, schedule: Q04DX003 (ip), vehicle: Klucel (hydroxypropylcellulose) (HPC)) was 95 % of control.

`CC[C@@]12C[C@]1(C(=O)OC)C(=O)N1CCc3c([nH]c4ccccc34)[C@H]12` was tested, and the T/C [4] was 90 % of control, the T/C [5] was 96 % of control and the T/C [6] was 91 % of control.

For `CC12CC3(C)CC(C)(C1)CC(Br)(C2)C3`, the T/C [1] was 100 % of control, the T/C [2] was 99 % of control and the T/C [3] was 97 % of control.

With `CCOC(=O)C(C(=O)c1ccccc1)C(C)(C)C` (centres undefined) the T/C (dose: 37.5 mg/kg/injection, schedule: Q01DX009 (ip), vehicle: saline with Tween-80) was 103 % of control, the T/C (dose: 75.0 mg/kg/injection, schedule: Q01DX009 (ip), vehicle: saline with Tween-80) was 105 % of control and the T/C (dose: 150.0 mg/kg/injection, schedule: Q01DX009 (ip), vehicle: saline with Tween-80) was 112 % of control.

With `CN(CCNCC1CCCN1C)Cc1cccc(Cl)c1` (centres undefined) the T/C (dose: 50.0 mg/kg/injection, schedule: Q01DX005 (ip), vehicle: saline) was 108 % of control, the T/C (dose: 100.0 mg/kg/injection, schedule: Q01DX005 (ip), vehicle: saline) was 101 % of control and the T/C (dose: 200.0 mg/kg/injection, schedule: Q01DX005 (ip), vehicle: saline) was 106 % of control.

With `O=C1C2=C(Nc3cc(Cl)ccc3N2)OC1c1ccc(Cl)c(Cl)c1` (centres undefined) the T/C [4] was 92 % of control and the T/C [6] was 88 % of control.

`NC(Cc1cnc[nH]1)C(=O)NC(Cc1ccc(O)cc1)C(=O)O` (stereo not drawn) (H-His-Tyr-OH; configuration not given here) was tested, and the T/C (dose: 60.0 mg/kg/injection, schedule: Q01DX005 (ip), vehicle: saline) was 100 % of control, the T/C (dose: 120.0 mg/kg/injection, schedule: Q01DX005 (ip), vehicle: saline) was 101 % of control and the T/C (dose: 240.0 mg/kg/injection, schedule: Q01DX005 (ip), vehicle: saline) was 100 % of control.
